“And” between values parts separate entries of the source, which are not always exact repeats. Identical values can stand only once. Like-named read-outs stand apart in the source and are kept apart here.

One series addresses T1, PI3K (p110σ/p85α) (Homo sapiens, UniProt O00329).
T1 construct: Eurofins Pharma Discovery Service (contract assay)
As to the kind of experiment: PI3K (p110σ/p85α) kinase inhibitory activity (HTRF). Type of series: biochemical.

A further series has as its target T2, DNA-PK (h) (Homo sapiens, UniProt P78527).
T2 construct: Eurofins Pharma Discovery Service (contract assay)
As to the kind of experiment: DNA-PK kinase inhibitory activity (HTRF, Eurofins). The series is classed as biochemical. The settings on record: ATP: 10 μM. The method, then:
(§1) This experiment was tested at Eurofins Pharma Discovery Service, Reaction Biology Corp. (RBC)
(§2) […] DNA-PK: Mg/ATP; GST-cMyc-p53; EDTA; Ser15 antibody; ATP: 10 μM; biotinylated phosphatidylinositol-3,4,5-triphosphate; GST label GRP1 PH domain; streptavidin and phycocyanin; europium-labelled monoclonal antibody against GST.
DNA-PK (h) was incubated in a determination buffer containing 50 nM GST-cMyc-p53 and Mg/ATP (density as required). The reaction was initiated by adding a mixture of Mg/ATP. After incubating at room temperature for 30 min, a termination solution containing EDTA was added to terminate the reaction. Finally, a detection buffer (containing labeled anti-GST monoclonal antibody and europium-labeled anti-phosphate Ser15 antibody against phosphorylated p53) was added. Then, the board was read in time-resolved fluorescence mode, and a Homogeneous Time Resolved Fluorescence (HTRF) signal was measured according to the formula HTRF=10000×(Em665 nm/Em620 nm).

For series [1], the system named is human small cell lung cancer NCI-H69 cell subcutaneous xenograft tumor. Put plainly: NCI-H69 subcutaneous xenograft, combination with etoposide, 22-day experiment (Table 7). Type of series: in vivo, BALB/c nude mice. The method, then: Experiment example 3: in vivo pharmacodynamics of human small cell lung cancer NCI-H69 cell subcutaneous xenograft tumor BALB/c nude mouse model:
Experimental animals: Female BALB/c nude mice, 6-8 weeks old, weighing 15-22 grams; supplier: Shanghai Linchang Biotechnology Co., LTD. (Linchang, Shanghai)
Human small cell lung cancer NCI-H69 cells (ATCC, item number: HTB-119 and ECACC-95111733) were cultured in vitro in a culture condition of RPMI-1640 medium with 10% fetal bovine serum, 100 U/mL penicillin and 100 μg/mL streptomycin, incubated at 37° C. and 5% CO2. Conventional passage was carried out twice a week. When cell saturation was 80%-90% and the number reaches the requirement, cells were collected, counted and inoculated.
0.2 mL (10×10^6) NCI-H69 cells (with matrix glue, and volume ratio of 1:1) were subcutaneously inoculated into a right back of each mouse, and group administration was initiated when the average tumor volume reaches about 110-120 mm^3.
The tested compound was prepared as a 5 mg/mL clarified solution with 10% DMSO+50% polyethylene glycol 400+40% water as the solvent.
The experimental indicators refers to study whether tumor growth was inhibited, delayed, or cured. Tumor diameter was measured twice a week with a vernier caliper. The calculation formula of the tumor volume was V=0.5a×b^2, and a and b represent the long diameter and short diameter of the tumor, respectively.
The antitumor efficacy of the compound was evaluated by TGI (%) or relative tumor proliferation rate T/C (%). TGI (%) reflects the tumor growth inhibition rate. The calculation of TGI (%): TGI (%)=[1−(average tumor volume at the end of administration of a certain treatment group−average tumor volume at the beginning of administration of the treatment group)/(average tumor volume at the end of treatment in solvent control group−average tumor volume at the beginning of treatment in solvent control group)]×control group.
Relative tumor proliferation rate T/C (%): the calculation formula was as follows: T/C %=[…] TRTV/CRTV group (TRTV: treatment group RTV; CRTV: negative control group RTV). According to results of tumor measurement, Relative Tumor Volume (RTV) was calculated by the formula RTV=Vt/V0, where V0 was the average tumor volume measured in group administration (i.e., d0), and Vt was the average tumor volume measured in a certain single measurement. TRTV and CRTV collect data on the same day.
Statistic analysis includes an average value and a standard error (SEM) of tumor volume at each time point for each group. […] If there was no significant difference in F value, Dunnet (2-sided) method was applied to analysis. All data were analyzed using SPSS 17.0. P<0.05 was considered as having a significant difference.

A further series addresses T3, PI3K (p110α/p85α) (Homo sapiens, UniProt P42336).
T3 construct: Eurofins Pharma Discovery Service (contract assay)
Put plainly: PI3K (p110α/p85α) kinase inhibitory activity (HTRF). Type of series: biochemical. The protocol:
as §1, §2
PI3K (p110α/p85α) was incubated in a determination buffer containing phosphatidylinositol 4,5-diphosphate and Mg/ATP (density as required). The reaction was initiated by adding an ATP solution. After incubating at room temperature for 30 min, a termination solution containing EDTA and biotinylated phosphatidylinositol-3,4,5-triphosphate was added to terminate the reaction. Finally, a detection buffer (containing labeled anti-GST monoclonal antibody, PH domain of GRP1 with GST label and streptavidin and phycyanin and […]) was added. Then, the board was read in time-resolved fluorescence mode, and an HTRF signal was measured according to the formula HTRF=10000×(Em665 nm/Em620 nm).

Series [2] in a line: Pharmacokinetic evaluation in mice, IV and PO. Type of series: in vivo, Balb/c female mice. The method, then:
The tested compound was mixed with 10% DMSO/50% PEG400/40% water, vortexized and ultrasonic to prepare 0.2 mg/mL or 0.4 mg/ml, approximately clarified solution, which was filtered by a microporous membrane and then standby. Balb/c female mice of 18-20 g were selected and given the candidate compound solution intravenously at a dose of 1 or 2 mg/kg. The tested compound was mixed with 10% DMSO/50% PEG400/40% water, vortexized and ultrasonic to prepare 0.2 mg/mL or 1 mg/mL approximately clarified solution, which was filtered by a microporous membrane and then standby. Balb/c female mice of 18 to 20 g were selected and given orally the candidate compound solution at a dose of 2 or 10 mg/kg. Whole blood was collected for a certain period of time, and plasma was prepared. Drug concentration was analyzed by LC-MS/MS method, and pharmacokinetic parameters were calculated by Phoenix WinNonlin software (US Pharsight company).
C0: instantaneous concentration required after intravenous injection; Cmax: the highest blood concentration after administration; Tmax: time required to reach peak concentration after administration; T1/2: the time required for blood drug concentration to decrease by half; Vdss: apparent volume of distribution, which refers to the ratio constant of drug dosage to blood concentration when a drug reaches dynamic equilibrium in vivo. Cl: clearance rate, referring to drug apparent distribution volume number removed from the body per unit time; Tlast: time of last detection point: AUC0-last: an area under a drug duration curve, referring to an area surrounded by the blood drug concentration curve on the time axis; Bioavailability: a measure of the rate and extent of drug absorption into the blood circulation, which was an important index to evaluate drug absorption degree.

The mark [3] stands for this setting: 40 mg/kg, PO, QD + etoposide 10 mg/kg, IP, 3-day administration, 4-day withdrawal, 22nd day.
[4] abbreviates: 40 mg/kg, PO, QD + etoposide 10 mg/kg, IP, 3-day administration, 4-day withdrawal, average ± SEM.
The mark [5] stands for this setting: female, Balb/c, IV(1 mg/kg), mouse plasma.
Setting [6] is: female, Balb/c, PO(2 mg/kg), mouse plasma.

T3 sequence (P42336 whole entry, species assumed): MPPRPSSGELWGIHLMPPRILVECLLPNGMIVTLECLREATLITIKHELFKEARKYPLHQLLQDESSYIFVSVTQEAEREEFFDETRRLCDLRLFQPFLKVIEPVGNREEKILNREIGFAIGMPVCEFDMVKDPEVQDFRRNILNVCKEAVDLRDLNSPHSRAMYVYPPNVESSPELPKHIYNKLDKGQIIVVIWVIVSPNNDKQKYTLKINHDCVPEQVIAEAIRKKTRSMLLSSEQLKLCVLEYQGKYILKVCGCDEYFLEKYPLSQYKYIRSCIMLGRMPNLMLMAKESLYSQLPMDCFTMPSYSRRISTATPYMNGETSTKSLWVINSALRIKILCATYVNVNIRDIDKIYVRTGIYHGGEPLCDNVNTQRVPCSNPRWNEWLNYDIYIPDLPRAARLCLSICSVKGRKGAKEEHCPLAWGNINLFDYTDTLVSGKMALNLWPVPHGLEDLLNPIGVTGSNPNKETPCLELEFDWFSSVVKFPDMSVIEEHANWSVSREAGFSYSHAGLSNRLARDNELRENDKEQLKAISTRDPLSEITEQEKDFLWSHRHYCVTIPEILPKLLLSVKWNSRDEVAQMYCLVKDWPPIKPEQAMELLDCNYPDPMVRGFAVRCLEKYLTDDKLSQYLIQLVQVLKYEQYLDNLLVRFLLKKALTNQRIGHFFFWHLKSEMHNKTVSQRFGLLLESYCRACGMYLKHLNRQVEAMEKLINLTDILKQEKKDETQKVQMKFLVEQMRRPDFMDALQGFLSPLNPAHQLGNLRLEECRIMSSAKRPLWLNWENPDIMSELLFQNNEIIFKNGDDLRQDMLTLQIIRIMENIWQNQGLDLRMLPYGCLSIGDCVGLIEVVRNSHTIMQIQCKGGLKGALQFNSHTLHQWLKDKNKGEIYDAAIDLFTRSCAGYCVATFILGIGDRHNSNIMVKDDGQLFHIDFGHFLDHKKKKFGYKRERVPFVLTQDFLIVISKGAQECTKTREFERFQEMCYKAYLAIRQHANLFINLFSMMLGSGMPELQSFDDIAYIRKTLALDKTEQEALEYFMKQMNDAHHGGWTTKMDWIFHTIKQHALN
T3 sequence (P27986 whole entry partner, species assumed): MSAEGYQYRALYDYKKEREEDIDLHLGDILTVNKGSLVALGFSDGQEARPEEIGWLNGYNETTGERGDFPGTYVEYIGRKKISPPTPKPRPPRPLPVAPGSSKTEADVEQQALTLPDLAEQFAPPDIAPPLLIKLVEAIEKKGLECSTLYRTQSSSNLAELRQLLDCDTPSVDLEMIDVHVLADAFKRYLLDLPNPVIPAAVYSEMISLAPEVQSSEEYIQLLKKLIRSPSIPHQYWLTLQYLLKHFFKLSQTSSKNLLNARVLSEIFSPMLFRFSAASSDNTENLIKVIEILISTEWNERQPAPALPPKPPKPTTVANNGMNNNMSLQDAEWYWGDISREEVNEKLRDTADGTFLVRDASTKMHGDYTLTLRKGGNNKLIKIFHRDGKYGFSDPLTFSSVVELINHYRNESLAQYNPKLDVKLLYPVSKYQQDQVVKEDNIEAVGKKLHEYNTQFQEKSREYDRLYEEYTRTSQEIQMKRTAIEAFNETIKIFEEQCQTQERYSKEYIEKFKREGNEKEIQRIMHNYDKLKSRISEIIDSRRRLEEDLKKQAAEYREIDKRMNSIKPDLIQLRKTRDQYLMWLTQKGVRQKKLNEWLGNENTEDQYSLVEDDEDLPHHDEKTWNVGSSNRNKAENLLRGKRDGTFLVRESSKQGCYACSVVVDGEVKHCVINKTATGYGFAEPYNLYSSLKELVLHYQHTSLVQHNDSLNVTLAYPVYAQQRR
T1 sequence (O00329 whole entry): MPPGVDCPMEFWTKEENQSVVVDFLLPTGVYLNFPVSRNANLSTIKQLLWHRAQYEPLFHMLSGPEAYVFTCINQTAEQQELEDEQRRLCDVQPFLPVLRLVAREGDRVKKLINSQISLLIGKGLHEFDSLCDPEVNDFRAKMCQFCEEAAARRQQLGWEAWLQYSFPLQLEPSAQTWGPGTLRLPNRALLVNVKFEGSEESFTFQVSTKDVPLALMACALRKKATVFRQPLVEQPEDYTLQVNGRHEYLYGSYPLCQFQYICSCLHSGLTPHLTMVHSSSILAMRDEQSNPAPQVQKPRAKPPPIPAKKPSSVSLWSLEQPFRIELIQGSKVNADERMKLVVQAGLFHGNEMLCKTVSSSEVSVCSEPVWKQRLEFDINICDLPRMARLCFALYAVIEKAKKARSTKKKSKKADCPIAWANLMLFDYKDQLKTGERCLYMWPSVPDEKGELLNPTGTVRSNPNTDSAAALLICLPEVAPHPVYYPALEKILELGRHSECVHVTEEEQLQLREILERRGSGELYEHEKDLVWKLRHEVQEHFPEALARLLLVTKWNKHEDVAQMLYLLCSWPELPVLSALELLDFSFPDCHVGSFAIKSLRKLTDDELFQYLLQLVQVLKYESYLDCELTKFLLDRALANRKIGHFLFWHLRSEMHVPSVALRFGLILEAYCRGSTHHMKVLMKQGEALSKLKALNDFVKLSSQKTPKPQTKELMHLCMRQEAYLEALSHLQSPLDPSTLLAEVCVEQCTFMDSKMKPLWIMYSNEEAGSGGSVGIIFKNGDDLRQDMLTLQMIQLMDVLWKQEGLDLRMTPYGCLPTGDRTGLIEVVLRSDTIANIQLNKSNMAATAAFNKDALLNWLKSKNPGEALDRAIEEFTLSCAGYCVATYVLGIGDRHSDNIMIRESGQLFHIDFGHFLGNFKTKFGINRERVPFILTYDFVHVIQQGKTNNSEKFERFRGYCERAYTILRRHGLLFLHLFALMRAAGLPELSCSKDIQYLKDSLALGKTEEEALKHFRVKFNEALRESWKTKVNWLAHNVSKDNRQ
T1 sequence (P27986 whole entry partner): as the sequence (P27986 whole entry partner, species assumed) above

`COc1ccc(C(O)c2cc(-c3ccnc4cc(N5CCOCC5)ccc34)c(F)cc2Cl)nn1` (single isomer, unassigned) [Embodiment 2] returned an IC50 against PI3K (p110σ/p85α) of 13 nM. 0.5 nM corresponded to half-maximal inhibition at DNA-PK (h) (IC50). The Weight changes in series [1] (40 mg/kg group (+ etoposide 10 mg/kg, IP)) is on record as −16.66%. For the same molecule, in series [1] (40 mg/kg, PO, QD + etoposide 10 mg/kg, IP, 3-day administration, 4-day withdrawal), the “RTV (22th day)” value is given as 1.84. Also, in series [1] (setting [3]), the “T/C (%)” value is listed as 21.37%; the “TGI (%)” value was 89% and 88.96%. In addition, in series [1] (setting [4]), the “Tumor volume (mm^3) (0th day)” value came out at 119 ± 13 mm^3 and the “Tumor volume (mm^3) (22th day)” value amounted to 219 ± 44 mm^3. In addition, the IC50 on PI3K (p110α/p85α) is 39 nM. For the same molecule, in series [2] (IV(2 mg/kg), mouse plasma), the “AUC0-last” value worked out at 3.354 µM·h, the C0 was determined as 1810 nM, the “Cl” value was found to be 20.3 mL/min/kg and the “T1/2” value amounted to 1.33 h. Further, in series [2] (IV(2 mg/kg), mouse plasma), the “Tlast” value stood at 8.00 h and the “Vdss” value came to 2.25 L/kg. The “Bioavailability (%)” value in series [2] (PO(10 mg/kg), mouse) is 60.8%. In addition, in series [2] (PO(10 mg/kg), mouse plasma), the “AUC0-last” value is 9.073 µM·h, the concentration peaked (Cmax) at 2520 nM, the “T1/2” value is listed as 2.47 h and the “Tlast” value was 8.00 h. Further, the time of peak concentration (Tmax) in series [2] (PO(10 mg/kg), mouse plasma) was determined as 1.00 h.
With `COc1ccc(C(O)c2cc(-c3cnnc4cc(N5CCOCC5)ccc34)c(F)cc2Cl)nn1` (stereo not drawn) [Embodiment 3], the results for the IC50 against PI3K (p110σ/p85α), against DNA-PK (h) and on PI3K (p110α/p85α) were 132 nM, 3.5 nM and 509 nM, respectively. Further, the “Tlast” value is given as 8.00 h in series [2] (IV(1 mg/kg), mouse plasma) and 8.00 h in series [2] (PO(2 mg/kg), mouse plasma). In series [2] (female, Balb/c, plasma, PO(2 mg/kg), mouse), this molecule yielded a bioavailability of 48.2%. In addition, the area under the curve AUC(0-t) in series [2] (setting [5]) was found to be 1.85 µM·h; in series [2] (setting [6]), 1.79 µM·h. In addition, in series [2] (setting [5]), the C0 was found to be 1260 nM. This molecule also had a clearance in series [2] (setting [5]) of 17.9 mL/min/kg. Also, the half-life in series [2] (setting [5]) was 1.27 h; in series [2] (setting [6]), 2.83 h. The Vd in series [2] (female, Balb/c, IV(1 mg/kg), mouse plasma, read-out: Vdss) worked out at 1.42 L/kg. In series [2] (setting [6]), this molecule came in with a Cmax of 459 nM. Further, in series [2] (female, Balb/c, PO(2 mg/kg), mouse plasma, read-out: Tmax), the Tmax worked out at 0.5 h.

Source of the values: US20220267310A1, “QUINAZOLINE AND CINNOLINE DERIVATIVES AS DNA-PK INHIBITOR” (MEDSHINE DISCOVERY INC., priority 2019, published 2022).
